Laboratory results: patent US8192962B2, “Processes for detecting toxic substances” (Daikin Industries, Ltd., priority 2001, dated 2012)

System: Energy system protein genes
Experiment: DNA chip mRNA expression in yeast, energy system protein genes (Table 4)
Format: cell-based, Saccharomyces cerevisiae S288C
Summary of the method: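 Value is the scanned fluorescence intensity ratio of exposed versus chemical-free cells. Log-phase S288C yeast in YPD at 25° C. received one toxic substance for two hours, dosed to slow growth without killing; Cy3/Cy5-labeled cDNA from oligo-dT-purified mRNA was hybridized to a whole-genome chip at 65° C.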

Measured: The level of expressed mRNA in the presence of chemical substance/The level of expressed mRNA in the absence of chemical substance

O=[N+]([O-])c1cc[n+]([O-])c2ccccc12 [(5), 4-nitroquinolin-N-oxide]
0.9: yeast gene YLR258W, cells incubated two hours with the chemical substance | yeast gene YML087C | yeast gene YMR261C, cells incubated two hours with the chemical substance | yeast gene YNL202W, cells incubated two hours with the chemical substance | yeast gene YOL165C | yeast gene YPR048W, cells incubated two hours with the chemical substance | yeast gene YPR184W, cells incubated two hours with the chemical substance
0.6: yeast gene YLR304C, cells incubated two hours with the chemical substance | yeast gene YML120C, cells incubated two hours with the chemical substance | yeast gene YNL071W | yeast gene YPL262W, cells incubated two hours with the chemical substance
1.5: yeast gene YKL016C, cells incubated two hours with the chemical substance | yeast gene YKL141W, cells incubated two hours with the chemical substance | yeast gene YPL031C, cells incubated two hours with the chemical substance | yeast gene YPL088W | yeast gene YPL276W, cells incubated two hours with the chemical substance
1.2: yeast gene YJR009C | yeast gene YLR345W | yeast gene YMR118C | yeast gene YMR205C, cells incubated two hours with the chemical substance | yeast gene YPL275W, cells incubated two hours with the chemical substance
1.1: yeast gene YKR097W | yeast gene YPL171C
1.6: yeast gene YKL060C, cells incubated two hours with the chemical substance | yeast gene YLL041C, cells incubated two hours with the chemical substance | yeast gene YLR284C, cells incubated two hours with the chemical substance | yeast gene YLR354C, cells incubated two hours with the chemical substance | yeast gene YNL331C | yeast gene YPL061W, cells incubated two hours with the chemical substance
1.0: yeast gene YKR009C, cells incubated two hours with the chemical substance | yeast gene YLR377C, cells incubated two hours with the chemical substance | yeast gene YMR267W, cells incubated two hours with the chemical substance, 25° C., YPD medium | yeast gene YOR178C, cells incubated two hours with the chemical substance
1.9: yeast gene YOL086C, cells incubated two hours with the chemical substance
1.3: yeast gene YLR134W, cells incubated two hours with the chemical substance | yeast gene YOR388C, cells incubated two hours with the chemical substance | yeast gene YPL240C
1.4: yeast gene YOR142W, cells incubated two hours with the chemical substance
1.8: yeast gene YLR038C, cells incubated two hours with the chemical substance
0.8: yeast gene YJR048W | yeast gene YJR121W, cells incubated two hours with the chemical substance | yeast gene YKL148C, cells incubated two hours with the chemical substance | yeast gene YKR058W, cells incubated two hours with the chemical substance, 25° C., YPD medium | yeast gene YMR073C, cells incubated two hours with the chemical substance | yeast gene YNL241C
1.7: yeast gene YLR044C, cells incubated two hours with the chemical substance | yeast gene YML129C, cells incubated two hours with the chemical substance
0.7: yeast gene YJR155W | yeast gene YLR395C, cells incubated two hours with the chemical substance | yeast gene YMR323W, cells incubated two hours with the chemical substance
2.2: yeast gene YLR295C, cells incubated two hours with the chemical substance, 25° C., YPD medium
